Test results reported in patent publication US12252524B2, “GIP/GLP1 co-agonist compounds” (Eli Lilly and Company, priority 2018, dated 2025).
Numbered stars: 1 amine (or outer) side, 2 acyl side, 3 side chain; on linkers, the order of the positions; unused ones are H or OH. Square brackets hold non-standard residues; d marks the D form. Side chains are listed from the residue outwards. Peptide text beside a SMILES is read from it. * marks the point of attachment. C20 diacid = O=C(O)CCCCCCCCCCCCCCCCCCC(=O)*; γGlu = O=C(O)[C@H](CCC(=O)[*:2])N[*:1]; αMeL = CC(C)C[C@](C)(N)C(=O)O; Orn = NCCC[C@H](N)C(=O)O; AEEA = NCCOCCOCC(=O)O; Aib = CC(C)(N)C(=O)O

Assays:
human Gcg receptor = target: T1, human Gcg receptor (Homo sapiens, UniProt P47871); experiment: [125I]-Glucagon binding (SPA), human Gcg receptor; settings: read-out: hGLcgR Ki, nM (SEM, n)
T1 construct: expressed in transfected cells; crude membranes
T1 sequence (P47871 26-477): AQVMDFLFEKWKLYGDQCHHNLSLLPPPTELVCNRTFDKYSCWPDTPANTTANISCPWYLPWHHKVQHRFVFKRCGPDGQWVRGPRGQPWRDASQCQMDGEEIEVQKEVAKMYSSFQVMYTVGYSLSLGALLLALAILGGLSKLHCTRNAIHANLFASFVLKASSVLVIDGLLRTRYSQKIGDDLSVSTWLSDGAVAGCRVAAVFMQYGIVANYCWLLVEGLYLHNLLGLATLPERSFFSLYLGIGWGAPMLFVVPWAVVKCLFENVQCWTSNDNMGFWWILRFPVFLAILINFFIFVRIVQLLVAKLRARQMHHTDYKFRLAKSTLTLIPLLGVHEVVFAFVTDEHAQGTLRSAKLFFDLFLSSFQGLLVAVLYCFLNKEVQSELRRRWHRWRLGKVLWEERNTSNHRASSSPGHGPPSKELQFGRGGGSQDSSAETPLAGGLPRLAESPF
Summary of the method: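 Cell pellets were lysed in hypotonic Tris buffer, pH 7.5, homogenized, and spun at low then high speed to give crude membranes. Ki was derived from the fitted IC50.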

human GIP receptor = target: T2, human GIP receptor (Homo sapiens, UniProt P48546); experiment: [125I]-GIP binding (SPA), human GIP receptor; settings: read-out: hGIPR Ki, nM (SEM, n)
T2 construct: expressed in transfected cells; crude membranes
T2 sequence (P48546 22-466): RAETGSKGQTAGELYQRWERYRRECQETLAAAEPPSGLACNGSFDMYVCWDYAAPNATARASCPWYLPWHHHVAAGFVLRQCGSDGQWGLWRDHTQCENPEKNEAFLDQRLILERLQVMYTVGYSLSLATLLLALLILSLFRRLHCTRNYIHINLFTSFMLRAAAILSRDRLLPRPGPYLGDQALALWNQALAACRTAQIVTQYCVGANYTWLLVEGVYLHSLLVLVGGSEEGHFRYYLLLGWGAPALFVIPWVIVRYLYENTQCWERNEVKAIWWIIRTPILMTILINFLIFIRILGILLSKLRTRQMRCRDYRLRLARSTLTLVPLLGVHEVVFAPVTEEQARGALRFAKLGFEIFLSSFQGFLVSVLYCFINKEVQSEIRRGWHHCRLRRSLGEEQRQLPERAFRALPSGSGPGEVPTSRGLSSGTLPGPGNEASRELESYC

[1] = target: T3, gastric inhibitory peptide receptor (GIPR) (Homo sapiens, UniProt P48546); experiment: cAMP pharmacological functional assay in presence of casein, hGIPR; assay type: cell-based; settings: HEK293 cells expressing hGIPR, 0.1% Casein, geometric mean; read-out: hGIPR cAMP Rel EC50 nM (SEM, n)
T3 sequence (P48546 22-466): T2 sequence (P48546 22-466)

human GLP-1R [2] = target: T4, human GLP-1R (Homo sapiens, UniProt P43220); experiment: [125I]-GLP-1 binding (SPA), human GLP-1 receptor; design: expressed in transfected cells; crude membranes; settings: read-out: hGLP1R Ki, (nM) (SEM, n)
T4 sequence (P43220 24-463): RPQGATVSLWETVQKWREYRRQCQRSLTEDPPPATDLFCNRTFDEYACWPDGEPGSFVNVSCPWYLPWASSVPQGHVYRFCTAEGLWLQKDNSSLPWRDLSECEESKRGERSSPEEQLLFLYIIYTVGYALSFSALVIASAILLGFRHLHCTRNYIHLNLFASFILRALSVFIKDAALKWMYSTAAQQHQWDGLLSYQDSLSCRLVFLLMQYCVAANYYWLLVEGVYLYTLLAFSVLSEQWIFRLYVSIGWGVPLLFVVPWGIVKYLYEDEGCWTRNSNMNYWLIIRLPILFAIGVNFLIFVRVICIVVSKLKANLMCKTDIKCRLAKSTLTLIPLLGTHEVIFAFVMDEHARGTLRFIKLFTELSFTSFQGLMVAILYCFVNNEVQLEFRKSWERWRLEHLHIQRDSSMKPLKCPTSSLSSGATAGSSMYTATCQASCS
Summary of the method: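 Crude-membrane binding assay; one membrane prep included 1 mM MgCl2 and 25 units/ml DNAse I during lysis. Assay buffer at pH 7.4 contains 0.1% (w/v) bacitracin and 0.003% (w/v) TWEEN-20. Ki is reported as geometric mean.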

[3] = target: human GLP-1 receptor (GLP-1R) (Homo sapiens, UniProt P43220); experiment: cAMP pharmacological functional assay in presence of casein, hGLP-1R; assay type: cell-based; settings: HEK293 cells expressing hGLP-1R, 0.1% Casein, geometric mean; read-out: hGLP1R cAMP Rel EC50 nM (SEM, n)
Chain of human GLP-1 receptor (GLP-1R) (P43220 24-463): as above

human GLP-1R [4] = target: T4, human GLP-1R; experiment: GLP-1R CHO cell β-arrestin recruitment assay; assay type: cell-based; design: host or cells: CHO-K1 PathHunter cells, assay-ready frozen; settings: for EC50: CHO-K1 cells; for hGLP1R B-Arrestin2 % Top: normalized to GLP-1 maximum control
Summary of the method: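 PathHunter CHO-K1 cells with ProLink-tagged human GLP-1R and enzyme-acceptor-tagged β-arrestin-2 treated with serially diluted peptides in assay buffer containing 0.1% hydrolyzed casein, 90 min at 37 °C.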

human GLP-1R [5] = target: T4, human GLP-1R; experiment: GLP-1R HEK293 cell membrane [35S]GTPγS binding assay; assay type: biochemical; design: expressed in transfected cells; host or cells: HEK293 cells expressing human GLP-1R; membranes; settings: HEK293 cell membranes expressing human GLP-1R, [35S]GTPγS binding; read-out: hGLP1R GTPgS Rel EC50 nM (SEM, n)
Summary of the method: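 Membranes from HEK293 cells expressing the receptor incubated with peptide and […] [35S]GTPγS in HEPES pH 7.4 buffer with NaCl, MgCl2, saponin and BSA, 30 min at room temperature. Gαs-bound label captured by anti-Gαs antibody/SPA beads and counted; EC50 from four-parameter logistic fit.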

[6] = PathHunter β-arrestin-2 recruitment, 0.1% casein, read-out: hGLP1R B-Arrestin2 Rel EC50 uM (SEM, n)

CC[C@H](C)[C@H](NC(=O)[C@H](CC(C)C)NC(=O)[C@H](Cc1ccc(O)cc1)NC(=O)[C@H](CCC(=O)O)NC(=O)[C@@H](NC(=O)[C@H](Cc1ccccc1)NC(=O)[C@H](C)NC(=O)C(C)(C)NC(=O)[C@H](CCC(N)=O)NC(=O)[C@H](C)NC(=O)[C@H](CCCCNC(=O)COCCOCCNC(=O)COCCOCCNC(=O)CC[C@H](NC(=O)CCCCCCCCCCCCCCCCCCC(=O)O)C(=O)O)NC(=O)[C@H](CCCCN)NC(=O)[C@H](CC(=O)O)NC(=O)[C@H](CC(C)C)NC(=O)[C@H](CC(C)C)NC(=O)[C@@H](NC(=O)[C@H](CO)NC(=O)[C@H](Cc1ccc(O)cc1)NC(=O)[C@H](CC(=O)O)NC(=O)[C@H](CO)NC(=O)[C@@H](NC(=O)[C@](C)(Cc1ccccc1)NC(=O)[C@@H](NC(=O)CNC(=O)[C@H](CCC(=O)O)NC(=O)C(C)(C)NC(=O)[C@H](N)Cc1ccc(O)cc1)[C@@H](C)O)[C@@H](C)O)[C@@H](C)CC)[C@@H](C)CC)C(=O)N[C@@H](CCC(=O)O)C(=O)NCC(=O)NCC(=O)N1CCC[C@H]1C(=O)N[C@@H](CO)C(=O)N[C@@H](CO)C(=O)NCC(=O)N[C@@H](C)C(=O)N1CCC[C@H]1C(=O)N1CCC[C@H]1C(=O)N1CCC[C@H]1C(=O)N[C@@H](CO)C(N)=O [Example 329]
Ki (human Gcg receptor): 17 nM | Ki (human GIP receptor): 0.0439 nM | EC50 [1]: 0.132 nM | Ki (human GLP-1R [2]): 3.28 nM | EC50 [3]: 0.125 nM | EC50 (human GLP-1R [4]; [6]): 0.00473 µM | hGLP1R B-Arrestin2 % Top (human GLP-1R [4]): 63.4% | EC50 (human GLP-1R [5]): 0.343 nM

CC[C@H](C)[C@H](NC(=O)[C@H](CC(C)C)NC(=O)[C@H](Cc1ccc(O)cc1)NC(=O)[C@H](CCC(=O)O)NC(=O)[C@@H](NC(=O)[C@H](Cc1ccccc1)NC(=O)[C@H](C)NC(=O)C(C)(C)NC(=O)[C@H](CCC(N)=O)NC(=O)[C@H](C)NC(=O)[C@H](CCCCNC(=O)COCCOCCNC(=O)COCCOCCNC(=O)CC[C@H](NC(=O)CCCCCCCCCCCCCCCCCCC(=O)O)C(=O)O)NC(=O)[C@H](CCCN)NC(=O)[C@H](CC(=O)O)NC(=O)[C@H](CC(C)C)NC(=O)[C@](C)(CC(C)C)NC(=O)[C@@H](NC(=O)[C@H](CO)NC(=O)[C@H](Cc1ccc(O)cc1)NC(=O)[C@H](CC(=O)O)NC(=O)[C@H](CO)NC(=O)[C@@H](NC(=O)[C@H](Cc1ccccc1)NC(=O)[C@@H](NC(=O)CNC(=O)[C@H](CCC(=O)O)NC(=O)C(C)(C)NC(=O)[C@H](N)Cc1ccc(O)cc1)[C@@H](C)O)[C@@H](C)O)[C@@H](C)CC)[C@@H](C)CC)C(=O)N[C@@H](C)C(=O)NCC(=O)NCC(=O)N1CCC[C@H]1C(=O)N[C@@H](CO)C(=O)N[C@@H](CO)C(=O)NCC(=O)N[C@@H](C)C(=O)N1CCC[C@H]1C(=O)N1CCC[C@H]1C(=O)N1CCC[C@H]1C(=O)N[C@@H](CO)C(N)=O [Example 346] (H-[dY][Aib]EGTFTSDYSI[αMeL]LD[Orn]K([AEEA-AEEA-γGlu-C20 diacid])AQ[Aib]AFIEYLIAGGPSSGAPPPS-NH2)
Ki (human Gcg receptor): 310 nM | Ki (human GIP receptor): 0.0559 nM | EC50 [1]: 0.144 nM | Ki (human GLP-1R [2]): 1.67 nM | EC50 [3]: 0.128 nM | EC50 (human GLP-1R [4]; [6]): 0.00325 µM | hGLP1R B-Arrestin2 % Top (human GLP-1R [4]): 19.3% | EC50 (human GLP-1R [5]): 0.737 nM

CC[C@H](C)[C@H](NC(=O)[C@H](CC(C)C)NC(=O)[C@H](Cc1ccc(O)cc1)NC(=O)[C@H](CCC(=O)O)NC(=O)[C@@H](NC(=O)[C@H](Cc1ccccc1)NC(=O)[C@H](C)NC(=O)C(C)(C)NC(=O)[C@H](CCC(N)=O)NC(=O)[C@H](C)NC(=O)[C@H](CCCCNC(=O)COCCOCCNC(=O)COCCOCCNC(=O)CC[C@H](NC(=O)CCCCCCCCCCCCCCCCCCC(=O)O)C(=O)O)NC(=O)[C@H](CCC(=O)O)NC(=O)[C@H](CC(=O)O)NC(=O)[C@H](CC(C)C)NC(=O)[C@H](CC(C)C)NC(=O)[C@@H](NC(=O)[C@H](CO)NC(=O)[C@H](Cc1ccc(O)cc1)NC(=O)[C@H](CC(=O)O)NC(=O)[C@H](CO)NC(=O)[C@@H](NC(=O)[C@H](Cc1ccccc1)NC(=O)[C@@H](NC(=O)CNC(=O)[C@H](CCC(=O)O)NC(=O)C(C)(C)NC(=O)[C@@H](N)Cc1ccc(O)cc1)[C@@H](C)O)[C@@H](C)O)[C@@H](C)CC)[C@@H](C)CC)C(=O)N[C@@H](C)C(=O)NCC(=O)NCC(=O)N1CCC[C@H]1C(=O)N[C@@H](CO)C(=O)N[C@@H](CO)C(=O)NCC(=O)N[C@@H](C)C(=O)N1CCC[C@H]1C(=O)N1CCC[C@H]1C(=O)N1CCC[C@H]1C(=O)N[C@@H](CO)C(N)=O [Example 330] (H-Y[Aib]EGTFTSDYSILLDEK([AEEA-AEEA-γGlu-C20 diacid])AQ[Aib]AFIEYLIAGGPSSGAPPPS-NH2)
Ki (human Gcg receptor): > 1050 nM | Ki (human GIP receptor): 0.114 nM | EC50 [1]: 0.0919 nM | EC50 [3]: 0.199 nM | EC50 (human GLP-1R [4]; 0.1% w/v hydrolyzed Casein, read-out: hGLP1R B-Arrestin2 Rel EC50): > 10.9 µM | EC50 (human GLP-1R [4]; [6]): > 10.9 µM | EC50 (human GLP-1R [5]): 1.05 nM

CC[C@H](C)[C@H](NC(=O)[C@H](CC(C)C)NC(=O)[C@H](Cc1ccc(O)cc1)NC(=O)[C@@H](CCC(=O)O)NC(=O)[C@@H](NC(=O)[C@H](Cc1ccccc1)NC(=O)[C@H](CCC(=O)O)NC(=O)C(C)(C)NC(=O)[C@H](CCC(N)=O)NC(=O)[C@H](C)NC(=O)[C@H](CCCCNC(=O)COCCOCCNC(=O)COCCOCCNC(=O)CC[C@H](NC(=O)CCCCCCCCCCCCCCCCCCC(=O)O)C(=O)O)NC(=O)[C@H](CCCN)NC(=O)[C@H](CC(=O)O)NC(=O)[C@H](CC(C)C)NC(=O)[C@](C)(CC(C)C)NC(=O)[C@@H](NC(=O)[C@H](CO)NC(=O)[C@H](Cc1ccc(O)cc1)NC(=O)[C@H](CC(=O)O)NC(=O)[C@H](CO)NC(=O)[C@@H](NC(=O)[C@H](Cc1ccccc1)NC(=O)[C@@H](NC(=O)CNC(=O)[C@H](CCC(=O)O)NC(=O)C(C)(C)NC(=O)[C@H](N)Cc1ccc(O)cc1)[C@@H](C)O)[C@@H](C)O)[C@@H](C)CC)[C@@H](C)CC)C(=O)N[C@@H](CCC(=O)O)C(=O)NCC(=O)NCC(=O)N1CCC[C@H]1C(=O)N[C@@H](CO)C(=O)N[C@@H](CO)C(=O)NCC(=O)N[C@@H](C)C(=O)N1CCC[C@H]1C(=O)N1CCC[C@H]1C(=O)N1CCC[C@H]1C(=O)N[C@@H](CO)C(N)=O [Example 355] (H-[dY][Aib]EGTFTSDYSI[αMeL]LD[Orn]K([AEEA-AEEA-γGlu-C20 diacid])AQ[Aib]EFI[dE]YLIEGGPSSGAPPPS-NH2)
EC50 [1]: 0.685 nM | EC50 [3]: 0.896 nM | EC50 (human GLP-1R [4]; [6]): 0.363 µM | hGLP1R B-Arrestin2 % Top (human GLP-1R [4]): 18.3% | EC50 (human GLP-1R [5]): 1.76 nM
